In the NIST ThermoML archive (doi:10.1016/j.fluid.2007.08.008) one finds refractive index and mass density data, which are given here for four compounds.

As a reminder, the refractive index is a measure of how strongly the sample bends light. In general, mass density refers to the mass of a sample divided by its volume.

Numbers after ± are expanded uncertainties.

Data set [1] in a line: refractive index (Na D-line) (dimensionless). The settings on record: 298.15 K; 101.33 kPa; Liquid; Standard Abbe refractometry.
For data set [2] the following is noted: 298.15 K; 101.33 kPa; Liquid; Vibrating tube method.

As for `OCCO` [1,2-ethanediol], in data set [1], the refractive index is 1.4306 ± 0.004.

Turning to `CCCOCCC` [dipropyl ether], in data set [2], the mass density is on record as 741.81 ± 13 kg/m3. Moreover, in data set [1], the refractive index turned out to be 1.3784 ± 0.0045. Take `O` [water]: the refractive index in data set [1] stood at 1.3325 ± 0.004. With `CCCO` [propan-1-ol], the mass density in data set [2] was found to be 799.62 ± 0.14 kg/m3. Moreover, in data set [1], the refractive index came to 1.3836 ± 0.004.
